In patent US20230000808A1, “COMPOSITIONS AND METHODS EXCLUDING OR WITH REDUCED GLUTAMINE FOR THE TREATMENT OF HEMOGLOBINOPATHIES AND THALASSEMIAS” (AXCELLA HEALTH INC., priority 2019, published 2023):

How the values were obtained:
Assay type in all cases: cell-based, human
sICAM-1 = test: Soluble ICAM-1 in HLMVEC/TNF-α model (Luminex); conditions: for sICAM-1 expression relative to TNF Control, Mean % Change: 20×HMDB amino acids, 24 h co-treatment
Procedure: Cells were incubated at 37° C., 5% CO2 in a humidified incubator. Cells were passaged at least 1-2 times in the complete growth medium every 2-3 days until ready to plate for cell culture studies. Once ready for experiment, HLMVECs were seeded at a density of 6K cells per well of the 96 well optical microplates (Thermofisher) in the complete growth medium described above and the plated cells were incubated for 24 hours at 37° C. in a humidified incubator with 5% CO2. […] The values are published in the Human Metabolome Database (Wishart D S, et al., Nucleic Acids Res. 2007 January; 35:D521-6) which is hereby incorporated by reference in its entirety. The medium was also supplemented with growth factors & antibiotics from EGM2-MV kit (Lonza) except the kit-provided FBS which was substituted with dialyzed FBS (Hyclone). […]). […] were run in duplicate and data was normalized to corresponding TNF-α control for respective treatments as specified in the tables. Mean percent change in level of adhesion markers are reported herein. Statistical analysis was done using two sample t-test.

[1] = tested on: whole blood from healthy controls; test: ROS (DCF fluorescence) in whole blood of healthy control donors, H2O2-induced; conditions: healthy control donors treated with H2O2; dose-responsive
Procedure: (§1) Whole blood samples were appropriately diluted in Ca^2+- and Mg^2+-free Dulbecco's phosphate buffered saline (DPBS, Life Technologies) and the concentration of erythrocytes (RBC/mL) was measured on a Cellometer K2 Fluorescent Viability Cell Counter according to the manufacturer's RBC/AOPI protocol (Nexcelom Biosciences).
(§2) Cells were then diluted to 1×10^6 RBC/mL into either prewarmed 37° C. […] 2′-7′-dichlorofluorescin diacetate (DCF, Millipore Sigma), 20 mM in dimethyl sulfoxide (DMSO, Fisher) were added to a working concentration of 100 μM. Cells were incubated with dye for 15 minutes at 37° C., 5% CO2 in a tissue culture incubator, washed once, and resuspended in the 0.9 volumes of the same prewarmed 37° C. buffer with 5 minute spins at 500×g, accel/decal=5 in a swing arm centrifuge (Beckman Coulter). […] Where possible due to solubility constrains, pH-7.4-adjusted stock solutions of amino acids were used. Wells were mixed by pipetting and plates incubated at 37° C., 5% CO2 in a tissue culture incubator for 30 minutes. Optionally, 40 mM H2O2 (Millipore Sigma) freshly prepared in the same buffer was added to bring the concentration to 2 mM, wells mixed by pipetting, and plates were incubated an additional 30, 60, 120, or 240 minutes before fluorescence measurement of ROS signal on a Synergy H4 (BioTek) microplate reader with excitation=488 nm and emission=530 nm, and gain either set to autogain, 75, or 100.

[2] = tested on: sickle cell disease patient blood; test: ROS (DCF fluorescence) in sickle cell disease patient whole blood; conditions: both treated with H2O2 and untreated, in DPBS
Procedure: as §1, §2

NC(=O)CC[C@H](N)C(=O)O [Glutamine, L-glutamine]
sICAM-1 levels (sICAM-1; 0.5 ng/mL TNF-α (low), 20×HMDB, 24 h): failed to reduce
sICAM-1 expression relative to TNF Control, Mean % Change (sICAM-1; TNF Conc 0.5 ng/mL): 5.573%
sICAM-1 expression relative to TNF Control, Mean % Change (sICAM-1; TNF Conc 25 ng/mL): 142.4986%
sICAM-1 level increased by (sICAM-1; TNF-α 25 ng/mL, 20×HMDB, 24 h): 142%

CC(=O)N[C@@H](CS)C(=O)O [N-Acetyl Cysteine, N-acetylcysteine]
ROS measured in whole blood [1]: reduced
ROS measured in whole blood [2]: reduced
